Experimental findings from US20170152269A1, “FUSED BICYCLIC COMPOUNDS AND THEIR USE AS CDK INHIBITORS” (priority 2016, published 2017) are described below.

Experiment [1] addresses T1, CDK6 (Homo sapiens, UniProt Q00534).
T1 construct: purchased ThermoFisher (Waltham, Mass.)
Briefly: Lance TR-FRET kinase assay, CDK6. In kind it is biochemical. Here is the method: (§1) Time Resolved-Fluorescent Resonance Energy Transfer (TR-FRET) was used to determine inhibitory ability of compounds A1˜A19, B1s and B1˜B12 against the enzymatic activity of CDK1, CDK2, CDK4, CDK5, CDK6, CDK7, and CDK9.
(§2) Inhibitory activity of compounds against CDK1/2/4/5/6/7 was assessed using Lance TR-FRET assay kits from Perkin Elmer Life Sciences (Waltham, Mass.). CDK1/2/4/5/6/7 enzymes were purchased from ThermoFisher (Waltham, Mass.). 2.5 μL of compound solutions and 2.5 μL of enzyme solutions in kinase assay buffer, which was 50 mM HEPES (pH 7.5) with 1 mM EGTA, 1 mM MgCl2, 2 mM DTT, and 0.01% Tween-20, were added into a white OptiPlate-384 plate followed by adding 5 μL of fluorescently labeled peptide substrates (Ulight-4E-BP1 for CDK4/6 and Ulight-MBP for CDK1/2/7/9) and ATP mixture solutions. Final concentrations of substrates and DMSO were 100 nM and 0.5%, respectively. Concentrations of ATP and different CDK enzymes were adjusted accordingly to achieve optimal enzymatic activities. Final CDK concentrations were 100, 500, 600, 100, 50, and 200 ng/well and ATP concentrations were 30, 50, 100, 20, 100, and 50 μM for CDK1/2/4/5/6/7, respectively. Assay plates were covered to protect from light and spun for 1 min at 700 RPM. Reactions were allowed to perform for 60 minutes in dark with gentle shaking at room temperature after which 5 μL of 40 mM EDTA in detection buffer was added to stop reactions followed 5 μL of the Eu labeled antibodies giving final concentrations of 2 nM to detect the phosphorylation of the peptide substrates. Assay plates were read with the EnVision™ Multilabel Reader in TR-FRET mode (excitation at 320 nm and emission at 665 nm). The percent of inhibition was calculated from the means of data points using the formula: 100−(Signalcompound−NoSignalbackground)*100/(Signalvehicle−NoSignalbackground). The IC50s were determined with GraphPad Prism by the non-linear sigmoidal curve fitting of data from 10 doses.

Experiment [2] has as its target T2, CDK9/cyclin T1 (Homo sapiens, UniProt P50750).
T2 construct: purchased ThermoFisher (Waltham, Mass.)
Put plainly: LanthaScreen Eu kinase binding assay, CDK9. As to conditions: tracer 236 displacement, CDK9/cyclin T1 5 nM, 1 hour; read-out: CDK 9 inhibitory activity (IC50). Here is the method:
as §1
The CDK9 kinase inhibitory activity of compounds was tested in the LanthaScreen Eu kinase binding assay from ThermoFisher. LanthaScreen® Eu Kinase binding assays are based on the binding and displacement of a proprietary, Alexa Fluor® 647-labeled, ATP-competitive kinase inhibitor scaffold (kinase tracer) to CDK9. CDK9/cyclin T1, Kinase tracer 236 and LanthaScreen® Eu-anti-His Antibody were purchased form ThermoFisher (Waltham, Mass.). 5 μL of CDK9/cyclin T1 (final 5 nM)/antibody (final 2 nM) mixture, 5 μL of compound in kinase buffer, and 5 μL of tracer (final 30 nM) were added to wells of a white OptiPlate-384 plate in this specific order. Assay plates were covered to protect from light, spun for 1 min at 700 RPM and incubated at room temperature for 1 hour. Assay plates were read with the EnVision™ Multilabel Reader in TR-FRET mode (excitation at 320 nm and emission at 665 nm). The percent of inhibition was calculated from the means of data points using the formula: 100−(Signalcompound−NoSignalbackgound)*100/(Signalvehicle−NoSignalbackground). The IC50s were determined with GraphPad Prism by the non-linear sigmoidal curve fitting of data from 10 doses.

In experiment [3] the target is T3, CDK2 (Homo sapiens, UniProt P24941).
T3 construct: purchased ThermoFisher (Waltham, Mass.)
Put plainly: Lance TR-FRET kinase assay, CDK2. In kind it is biochemical. As to conditions: ATP 50 μM, 60 min, read-out: CDK 2 inhibitory activity (IC50). On the procedure: as §1, §2
A general note: TR-FRET usually uses a lanthanide donor and a delayed reading to cut background.

Experiment [4] concerns the target T4, CDK7 (Homo sapiens, UniProt P50613).
T4 construct: purchased ThermoFisher (Waltham, Mass.)
Put plainly: Lance TR-FRET kinase assay, CDK7. The class given is biochemical. The note with it: ATP 50 μM, 60 min; for IC50: read-out: CDK 7 inhibitory activity (IC50). Here is the method: as §2, with “2.5 μL of compound solutions and 2.5 μL of enzyme solutions in kinase assay buffer, which was 50 mM HEPES (pH 7.5) with 1 mM EGTA, 1 mM MgCl2, 2 mM DTT, and 0.01% Tween-20, were added into a white OptiPlate-384 plate followed by adding 5 μL of fluorescently labeled peptide substrates (Ulight-4E-BP1 for CDK4/6 and Ulight-MBP for CDK1/2/7/9) and ATP mixture solutions.” left out, “Assay plates were read with the EnVision™ Multilabel Reader in TR-FRET mode (excitation at 320 nm and emission at 665 nm).” left out

Experiment [5] addresses T5, CDK4 (Homo sapiens, UniProt P11802).
T5 construct: purchased ThermoFisher (Waltham, Mass.)
Put plainly: Lance TR-FRET kinase assay, CDK4. The note with it: ATP 100 μM, 60 min, read-out: CDK 4 inhibitory activity (IC50). In kind it is biochemical. Here is the method:
as §2, with “2.5 μL of compound solutions and 2.5 μL of enzyme solutions in kinase assay buffer, which was 50 mM HEPES (pH 7.5) with 1 mM EGTA, 1 mM MgCl2, 2 mM DTT, and 0.01% Tween-20, were added into a white OptiPlate-384 plate followed by adding 5 μL of fluorescently labeled peptide substrates (Ulight-4E-BP1 for CDK4/6 and Ulight-MBP for CDK1/2/7/9) and ATP mixture solutions.” left out, “Assay plates were read with the EnVision™ Multilabel Reader in TR-FRET mode (excitation at 320 nm and emission at 665 nm).” left out

For experiment [6], the target named is T6, CDK1 (Homo sapiens, UniProt P06493).
T6 construct: purchased ThermoFisher (Waltham, Mass.)
T6 sequence (P06493 whole entry): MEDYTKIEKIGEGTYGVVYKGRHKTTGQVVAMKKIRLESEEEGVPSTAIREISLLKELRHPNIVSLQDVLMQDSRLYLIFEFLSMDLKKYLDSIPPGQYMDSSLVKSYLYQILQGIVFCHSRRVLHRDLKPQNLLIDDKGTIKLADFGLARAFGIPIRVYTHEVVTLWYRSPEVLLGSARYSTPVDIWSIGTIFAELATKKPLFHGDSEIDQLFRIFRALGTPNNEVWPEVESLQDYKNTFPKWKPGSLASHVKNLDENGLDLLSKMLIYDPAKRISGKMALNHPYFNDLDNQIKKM
T6 sequence (P14635 whole entry partner): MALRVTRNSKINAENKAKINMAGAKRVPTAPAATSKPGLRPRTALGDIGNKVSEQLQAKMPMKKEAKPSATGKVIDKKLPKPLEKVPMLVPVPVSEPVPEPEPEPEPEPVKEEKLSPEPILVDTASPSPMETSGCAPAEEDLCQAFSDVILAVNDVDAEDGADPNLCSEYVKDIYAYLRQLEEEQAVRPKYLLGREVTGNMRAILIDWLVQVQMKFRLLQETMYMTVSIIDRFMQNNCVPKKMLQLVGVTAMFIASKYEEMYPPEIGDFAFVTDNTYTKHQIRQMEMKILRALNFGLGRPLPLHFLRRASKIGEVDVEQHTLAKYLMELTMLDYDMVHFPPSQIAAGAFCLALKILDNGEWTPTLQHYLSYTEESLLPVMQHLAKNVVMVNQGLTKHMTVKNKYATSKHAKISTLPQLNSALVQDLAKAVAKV
Put plainly: Lance TR-FRET kinase assay, CDK1. The class given is biochemical. The note with it: ATP 30 μM, 60 min, read-out: CDK 1 inhibitory activity (IC50). On the procedure: as §1, §2

Where a name gives a salt, the structure may show the parent alone.

T2 sequence (P50750 whole entry): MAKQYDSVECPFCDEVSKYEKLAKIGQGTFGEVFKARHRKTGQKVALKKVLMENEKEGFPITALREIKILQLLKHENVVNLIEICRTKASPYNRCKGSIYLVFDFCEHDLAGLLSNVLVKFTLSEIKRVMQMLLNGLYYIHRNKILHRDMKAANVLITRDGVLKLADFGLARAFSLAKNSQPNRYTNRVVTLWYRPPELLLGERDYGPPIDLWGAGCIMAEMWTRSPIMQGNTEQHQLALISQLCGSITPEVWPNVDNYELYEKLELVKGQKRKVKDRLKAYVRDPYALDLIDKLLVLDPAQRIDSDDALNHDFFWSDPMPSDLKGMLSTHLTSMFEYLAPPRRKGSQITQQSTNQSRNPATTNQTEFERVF
T2 sequence (O60563 whole entry partner): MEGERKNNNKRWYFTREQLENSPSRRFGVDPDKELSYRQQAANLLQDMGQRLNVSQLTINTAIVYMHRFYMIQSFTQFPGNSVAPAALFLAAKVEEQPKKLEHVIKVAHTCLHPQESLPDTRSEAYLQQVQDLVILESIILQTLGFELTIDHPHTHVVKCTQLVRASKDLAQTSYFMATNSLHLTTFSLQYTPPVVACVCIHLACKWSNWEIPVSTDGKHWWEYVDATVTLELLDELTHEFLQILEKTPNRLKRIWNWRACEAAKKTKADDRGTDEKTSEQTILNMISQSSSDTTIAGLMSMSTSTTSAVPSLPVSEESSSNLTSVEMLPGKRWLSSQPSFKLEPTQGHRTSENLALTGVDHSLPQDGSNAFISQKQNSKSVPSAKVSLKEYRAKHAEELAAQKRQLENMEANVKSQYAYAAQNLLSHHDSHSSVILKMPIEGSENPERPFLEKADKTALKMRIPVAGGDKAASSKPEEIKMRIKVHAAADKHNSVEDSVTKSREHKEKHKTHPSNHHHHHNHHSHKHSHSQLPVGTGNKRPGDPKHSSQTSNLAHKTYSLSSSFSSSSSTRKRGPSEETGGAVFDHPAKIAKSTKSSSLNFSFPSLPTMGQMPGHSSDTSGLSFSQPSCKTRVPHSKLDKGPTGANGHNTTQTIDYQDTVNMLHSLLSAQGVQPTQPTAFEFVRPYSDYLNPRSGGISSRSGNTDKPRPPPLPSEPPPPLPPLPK
T5 sequence (P11802 whole entry): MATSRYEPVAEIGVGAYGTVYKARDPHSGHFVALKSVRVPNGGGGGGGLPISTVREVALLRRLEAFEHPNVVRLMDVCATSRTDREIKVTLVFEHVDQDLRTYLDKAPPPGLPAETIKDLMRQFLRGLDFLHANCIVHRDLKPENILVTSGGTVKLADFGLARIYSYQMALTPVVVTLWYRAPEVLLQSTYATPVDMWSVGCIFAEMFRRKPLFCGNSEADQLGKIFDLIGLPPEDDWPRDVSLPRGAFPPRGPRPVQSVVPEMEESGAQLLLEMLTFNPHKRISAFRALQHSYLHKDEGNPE
T5 sequence (P24385 whole entry partner): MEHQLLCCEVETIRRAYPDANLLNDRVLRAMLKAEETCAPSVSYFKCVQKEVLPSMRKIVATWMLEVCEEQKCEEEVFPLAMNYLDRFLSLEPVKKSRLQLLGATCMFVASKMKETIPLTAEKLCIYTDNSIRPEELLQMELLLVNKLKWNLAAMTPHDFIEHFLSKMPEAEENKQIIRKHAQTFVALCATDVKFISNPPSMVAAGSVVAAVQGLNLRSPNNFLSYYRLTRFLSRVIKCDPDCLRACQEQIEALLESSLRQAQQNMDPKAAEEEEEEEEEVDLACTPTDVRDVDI
T4 sequence (P50613 whole entry): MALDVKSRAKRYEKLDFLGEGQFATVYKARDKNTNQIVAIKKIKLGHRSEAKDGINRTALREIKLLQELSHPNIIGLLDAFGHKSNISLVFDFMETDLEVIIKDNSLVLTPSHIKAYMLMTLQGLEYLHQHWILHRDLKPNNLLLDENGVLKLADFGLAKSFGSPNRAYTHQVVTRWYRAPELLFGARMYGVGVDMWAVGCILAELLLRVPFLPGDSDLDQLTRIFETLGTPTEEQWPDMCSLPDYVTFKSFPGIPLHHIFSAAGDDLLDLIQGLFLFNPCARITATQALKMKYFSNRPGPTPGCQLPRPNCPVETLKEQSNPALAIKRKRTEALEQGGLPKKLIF
T4 sequence (P51946 whole entry partner): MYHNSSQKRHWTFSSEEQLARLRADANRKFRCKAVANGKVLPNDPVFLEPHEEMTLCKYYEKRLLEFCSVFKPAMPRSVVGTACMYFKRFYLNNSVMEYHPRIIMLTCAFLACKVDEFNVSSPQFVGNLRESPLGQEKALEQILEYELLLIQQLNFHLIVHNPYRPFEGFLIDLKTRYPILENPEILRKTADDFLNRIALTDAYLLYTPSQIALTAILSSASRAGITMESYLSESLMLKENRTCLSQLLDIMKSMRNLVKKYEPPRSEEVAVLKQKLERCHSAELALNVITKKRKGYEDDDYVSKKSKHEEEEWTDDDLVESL
T4 sequence (P51948 whole entry partner): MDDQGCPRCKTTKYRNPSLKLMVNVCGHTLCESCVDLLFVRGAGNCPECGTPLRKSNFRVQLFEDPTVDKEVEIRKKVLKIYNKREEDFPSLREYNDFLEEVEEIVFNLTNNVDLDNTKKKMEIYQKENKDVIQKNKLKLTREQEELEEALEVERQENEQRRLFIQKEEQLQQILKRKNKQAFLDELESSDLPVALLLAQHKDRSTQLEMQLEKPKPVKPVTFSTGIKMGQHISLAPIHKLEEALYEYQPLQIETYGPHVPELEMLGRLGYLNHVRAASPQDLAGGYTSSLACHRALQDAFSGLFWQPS
T1 sequence (Q00534 whole entry): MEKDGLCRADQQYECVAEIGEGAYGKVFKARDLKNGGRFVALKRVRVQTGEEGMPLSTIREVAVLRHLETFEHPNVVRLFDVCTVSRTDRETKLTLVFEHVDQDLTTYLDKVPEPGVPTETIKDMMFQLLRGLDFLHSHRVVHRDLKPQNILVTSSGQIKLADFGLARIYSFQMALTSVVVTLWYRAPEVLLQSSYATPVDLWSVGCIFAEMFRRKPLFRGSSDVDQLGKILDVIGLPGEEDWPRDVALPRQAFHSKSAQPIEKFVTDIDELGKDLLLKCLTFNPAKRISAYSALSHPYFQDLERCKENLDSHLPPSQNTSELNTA
T1 sequence (P24385 whole entry partner): as the sequence (P24385 whole entry partner) above

Turning to `N#Cc1sc2cnc(Nc3ccc(N4CCNCC4)nc3)cc2c1C1CCCC1` [Compound B2, 3-cyclopentyl-5-((6-(piperazin-1-yl)pyridin-3-yl)amino)thieno[2,3-c]pyridine-2-carbonitrile], the concentration for half-maximal inhibition (IC50) (usually the concentration at which inhibition is half-maximal) in experiment [1] came out at 1 nM; in experiment [2], 6.6 nM; in experiment [3], 13.3 nM; in experiment [4], 53.9 nM; in experiment [5], 2.4 nM; in experiment [6], 77.4 nM.
As to `CN1CCN(c2ccc(Nc3cc4c(C5CCCC5)c(C#N)sc4cn3)nc2)CC1` [Compound B5, 3-cyclopentyl-5-((5-(4-methylpiperazin-1-yl)pyridin-2-yl)amino)thieno[2,3-c]pyridine-2-carbonitrile], the IC50 in experiment [1] amounted to 0.3 nM; in experiment [2] it was 1 nM; in experiment [3], 3.3 nM; in experiment [4], 22.1 nM; in experiment [5], 0.7 nM; in experiment [6] it was 9.1 nM.
In the case of `N#Cc1sc2cnc(Nc3ccc(N4CCNCC4)cc3)cc2c1C1CCCC1` [Compound B3, 3-cyclopentyl-5-((4-(piperazin-1-yl)phenyl)amino)thieno[2,3-c]pyridine-2-carbonitrile], the IC50 in experiment [1] came out at 0.2 nM; in experiment [2] it was 1.8 nM; in experiment [3], 5.2 nM; in experiment [4] it was 31.4 nM; in experiment [5], 1.9 nM; in experiment [6] it was 15.1 nM.
As to `CS(=O)(=O)N1CCN(c2ccc(Nc3cc4c(C5CCCC5)c(C#N)sc4cn3)nc2)CC1` [Compound B11, 3-cyclopentyl-5-((5-(4-(methylsulfonyl)piperazin-1-yl)pyridin-2-yl)amino)thieno[2,3-c]pyridine-2-carbonitrile], the IC50 in experiment [1] is 5.5 nM; in experiment [2], 8.1 nM; in experiment [3] it was 49.9 nM; in experiment [5], 17.7 nM; in experiment [6], 101 nM. Besides, the “CDK 7 inhibitory activity (IC50)” value in experiment [4] is “inactive”.
As to `CC(=O)N1CCN(c2ccc(Nc3cc4c(C5CCCC5)c(C#N)sc4cn3)nc2)CC1` [Compound B12, 5-((5-(4-acetylpiperazin-1-yl)pyridin-2-yl)amino)-3-cyclopentylthieno[2,3-c]pyridine-2-carbonitrile], the half-maximal inhibitory concentration (IC50) in experiment [1] worked out at 1.4 nM; in experiment [2], 2.5 nM; in experiment [3] it was 10.3 nM; in experiment [4], 9790 nM; in experiment [5], 4.1 nM; in experiment [6], 26.2 nM.
`CN1CCN(c2cccc(Nc3cc4c(C5CCCC5)c(C#N)sc4cn3)c2)CC1` [Compound B9, 3-cyclopentyl-5-((3-(4-methylpiperazin-1-yl)phenyl)amino)thieno[2,3-c]pyridine-2-carbonitrile]: the concentration for half-maximal inhibition (IC50) in experiment [1] stood at 120 nM; in experiment [2], 96.5 nM; in experiment [3], 70.8 nM; in experiment [4], 872 nM; in experiment [5], 582 nM; in experiment [6] it was 170 nM.
As for `N#Cc1sc2cnc(Nc3ccc(N4CCOCC4)nc3)cc2c1C1CCCC1` [Compound B7, 3-cyclopentyl-5-((6-morpholinopyridin-3-yl)amino)thieno[2,3-c]pyridine-2-carbonitrile], the half-maximal inhibitory concentration (IC50) in experiment [1] was determined as 19.4 nM; in experiment [2], 95.6 nM; in experiment [3] it was 19.4 nM; in experiment [5], 61.9 nM; in experiment [6] it was 324 nM. In addition, the “CDK 7 inhibitory activity (IC50)” value in experiment [4] was “inactive”.
Regarding `N#Cc1sc2cnc(Nc3ccc(N4CCNCC4)cn3)cc2c1C1CCCC1` [Compound B1s, 3-cyclopentyl-5-((5-(piperazin-1-yl)pyridin-2-yl)amino)thieno[2,3-c]pyridine-2-carbonitrile hydrochloride], the 50% inhibitory concentration (IC50) was 0.6 nM in experiment [2]; 9.2 nM in experiment [3]; 7.2 nM in experiment [4]; 0.9 nM in experiment [5]; 8.7 nM in experiment [6].
